In patent US20240158390A1, “OTHER HETEROAROMATIC COMPOUNDS HAVING ACTIVITY AGAINST RSV” (Janssen Sciences Ireland Unlimited Company, priority 2019, published 2024):

Legend:
rgRSV224 virus = experiment: Antiviral activity: rgRSV224 (GFP) replication in HeLa cells; type: cell-based; details: human respiratory syncytial virus, 72 h, read-out: RSV HELA EC50 (μM)
Protocol: (§1) Black 384-well clear-bottom microtiter plates (Corning, Amsterdam, The Netherlands) were filled via acoustic drop ejection using the echo liquid handler (Labcyte, Sunnyvale, California). 200 nL of compound stock solutions (100% DMSO) were transferred to the assay plates. 9 serial 4-fold dilutions of compound were made, creating per quadrant the same compound concentration. The assay was initiated by adding 10 μL of culture medium to each well (RPMI medium without phenol red, 10% FBS-heat inactivated, 0.04% gentamycin (50 mg/mL). All addition steps are done by using a multidrop dispenser (Thermo Scientific, Erembodegem, Belgium). Next, rgRSV224 virus (MOI=1) diluted in culture medium was added to the plates. rgRSV224 virus is an engineered virus that includes an additional GFP gene (Hallak LK, Spillmann D, Collins PL, Peeples ME. Glycosaminoglycan sulfation requirements for respiratory syncytial virus infection; Journal of virology (2000), 74(22), 10508-13) and was in-licensed from the NIH (Bethesda, MD, USA). Finally, 20 μL of a HeLa cell suspension (3,000 cells/well) were plated. Medium, virus- and mock-infected controls were included in each test. The wells contain 0.05% DMSO per volume. Cells were incubated at 37° C. in a 5% CO2 atmosphere. Three days post-virus exposure, viral replication was quantified by measuring GFP expression in the cells by an in house developed MSM laser microscope (Tibotec, Beerse, Belgium). The EC50 was defined as the 50% inhibitory concentration for GFP expression. In parallel, compounds were incubated for three days in a set of white 384-well microtiter plates (Corning) and the cytotoxicity of compounds in HeLa cells was determined by measuring the ATP content of the cells using the ATPlite kit (Perkin Elmer, Zaventem, Belgium) according to the manufacturer's instructions. The CC50 was defined as the 50% concentration for cytotoxicity.

in vitro = type: cell-based; details: human
Protocol: as §1

Structure (SMILES)	EC50 (rgRSV224 virus)	CC50 at 3 days (in vitro)
C[C@@H]1c2ccccc2CCN1C(=O)c1cc(C2CC2)c2c(n1)nc(-c1ccc(C3C[C@H]3C(=O)O)cc1F)n2C (relative stereo) [Compound 13, (Trans)-2-(4-(7-cyclopropyl-1-methyl-5-((R)-1-methyl-1,2,3,4-tetrahydroisoquinoline-2-carbonyl)-1H-imidazo[4,5-b]pyridin-2-yl)-3-fluorophenyl)cyclopropane-1-carboxylic acid]	22.4 µM	> 100 µM
C[C@@H]1c2ccccc2CCN1C(=O)c1cc(C2CC2)c2nc(-c3ccc(C4C[C@@H]4C(=O)O)cc3F)n(C)c2c1 (relative stereo) [Compound 14, Cis-2-(4-{4-cyclopropyl-1-methyl-6-[(1R)-1-methyl-1,2,3,4-tetrahydroisoquinoline-2-carbonyl]-1H-1,3-benzodiazol-2-yl}-3-fluorophenyl)cyclopropane-1-carboxylic acid]	9.05 µM	> 100 µM
C[C@@H]1c2ccccc2CCN1C(=O)c1cc(C2CC2)c2nc(-c3ccc(C4C[C@@H]4C(N)=O)cc3F)n(C)c2c1 (relative stereo) [Compound 15, Cis-2-(4-{4-cyclopropyl-1-methyl-6-[(1R)-1-methyl-1,2,3,4-tetrahydroisoquinoline-2-carbonyl]-1H-1,3-benzodiazol-2-yl}-3-fluorophenyl)cyclopropane-1-carboxamide]	0.69 µM	50.4 µM
C[C@@H]1c2ccccc2CCN1C(=O)c1cc(C2CC2)c2nc(-c3ccc(C4CC4C(=O)O)cc3F)n(C)c2n1 (stereo in doubt) [Compound 11, Trans 2-(4-{7-Cyclopropyl-3-methyl-5-[(1R)-1-methyl-1,2,3,4-tetrahydroisoquinoline-2-carbonyl]-3H-imidazo[4,5-b]pyridin-2-yl}-3-fluorophenyl)cyclopropane-1-carboxylic acid]	0.52 µM	76.8 µM
CCc1cc(C(=O)N2CCc3ccccc3[C@H]2C)nc2oc(-c3ccc(NC(=O)N4CC[C@@H](O)C4)cc3F)nc12 [Compound 1, (R)-N-(4-(7-ethyl-5-((R)-1-methyl-1,2,3,4-tetrahydroisoquinoline-2-carbonyl)oxazolo[5,4-b]pyridin-2-yl)-3-fluorophenyl)-3-hydroxypyrrolidine-1-carboxamide]	0.01 µM	> 25 µM
C[C@@H]1c2ccccc2CCN1C(=O)c1cc(C2CC2)c2nc(-c3ccc(N4C[C@H](O)[C@@H](O)C4)cc3F)oc2n1 [Compound 2, (7-cyclopropyl-2-(4-((3 S,4S)-3,4-dihydroxypyrrolidin-1-yl)-2-fluorophenyl)oxazolo[5,4-b]pyridin-5-yl)((R)-1-methyl-3,4-dihydroisoquinolin-2(1H)-yl)methanone]	0.02 µM	26 µM
CCc1cc(C(=O)N2CCc3ccccc3[C@H]2C)cc2cc(-c3ccc(N4C[C@H](O)[C@@H](O)C4)cc3F)oc12 [Compound 3, (2-(4-((3S,4S)-3,4-dihydroxypyrrolidin-1-yl)-2-fluorophenyl)-7-ethylbenzofuran-5-yl)((R)-1-methyl-3,4-dihydroisoquinolin-2 (1H)-yl)methanone]	0.25 µM	24.2 µM
C[C@@H]1c2ccccc2CCN1C(=O)c1cc(C2CC2)c2cc(-c3ccc(N4C[C@H](O)[C@@H](O)C4)cc3F)sc2n1 [Compound 4, (4-cyclopropyl-2-(4-((3 S,4S)-3,4-dihydroxypyrrolidin-1-yl)-2-fluorophenyl)thieno[2,3-b]pyridin-6-yl)((R)-1-methyl-3,4-dihydroisoquinolin-2(1H)-yl)methanone]	0.14 µM	14.3 µM
C[C@@H]1c2ccccc2CCN1C(=O)c1cc(C2CC2)c2sc(-c3ccc(N4C[C@H](O)[C@@H](O)C4)cc3F)nc2n1 [Compound 5, (7-cyclopropyl-2-(4-((3 S,4S)-3,4-dihydroxypyrrolidin-1-yl)-2-fluorophenyl)thiazolo[4,5-b]pyridin-5-yl)((R)-1-methyl-3,4-dihydroisoquinolin-2(1H)-yl)methanone]	0.73 µM	33.3 µM
CCc1cc(C(=O)N2CCc3ccccc3[C@H]2C)nc2cc(-c3ccc(NC(=O)N4CC[C@@H](O)C4)cc3F)oc12 [Compound 6, (R)-N-(4-(7-ethyl-5-((R)-1-methyl-1,2,3,4-tetrahydroisoquinoline-2-carbonyl)furo[3,2-b]pyridin-2-yl)-3-fluorophenyl)-3-hydroxypyrrolidine-1-carboxamide]	0.07 µM	> 100 µM
C[C@@H]1c2ccccc2CCN1C(=O)c1cc(C2CC2)c2nn(-c3ccc(NC(=O)N4CC[C@@H](O)C4)cc3F)cc2n1 [Compound 7, (R)-N-(4-(7-cyclopropyl-5-((R)-1-methyl-1,2,3,4-tetrahydroisoquinoline-2-carbonyl)-2H-pyrazolo[4,3-b]pyridin-2-yl)-3-fluorophenyl)-3-hydroxypyrrolidine-1-carboxamide]	0.05 µM	47.6 µM
C[C@@H]1c2ccccc2CCN1C(=O)c1cc(C2CC2)c2cc(-c3ccc([C@H]4C[C@@H]4C(=O)O)cc3F)[nH]c2c1 [Compound 8, (1 S,2S)-2-(4-(4-cyclopropyl-6-((R)-1-methyl-1,2,3,4-tetrahydroisoquinoline-2-carbonyl)-1H-indol-2-yl)-3-fluorophenyl)cyclopropane-1-carboxylic acid]	2.04 µM	20.9 µM
C[C@@H]1c2ccccc2CCN1C(=O)c1cc(C2CC2)c2cc(-c3ccc([C@H]4C[C@@H]4C(=O)O)cc3F)n(C)c2c1 [Compound 9, (1 S,2S)-2-(4-(4-cyclopropyl-1-methyl-6-((R)-1-methyl-1,2,3,4-tetrahydroisoquinoline-2-carbonyl)-1H-indol-2-yl)-3-fluorophenyl)cyclopropane-1-carboxylic acid]	2.31 µM	31.4 µM
C[C@@H]1c2ccccc2CCN1C(=O)c1cc(C2CC2)c2cc(-c3ccc(N4CC[C@@H](C(=O)O)C4)cc3F)n(C)c2c1 [Compound 10, (R)-1-(4-(4-cyclopropyl-1-methyl-6-((R)-1-methyl-1,2,3,4-tetrahydroisoquinoline-2-carbonyl)-1H-indol-2-yl)-3-fluorophenyl)pyrrolidine-3-carboxylic acid]	2.64 µM	21.1 µM
C[C@@H]1c2ccccc2CCN1C(=O)c1cc(C2CC2)c2nc(-c3ccc(N4CC[C@H](C(=O)O)C4)cc3F)n(C)c2n1 [Compound 12, Methyl (3S)-1-(4-{7-cyclopropyl-3-methyl-5-[(1R)-1-methyl-1,2,3,4-tetrahydroisoquinoline-2-carbonyl]-3H-imidazo[4,5-b]pyridin-2-yl}-3-fluorophenyl)pyrrolidine-3-carboxylic acid]	0.43 µM	63 µM
C[C@@H]1c2ccccc2CCN1C(=O)c1cc(C2CC2)c2nc(-c3ccc(N4CC[C@H](C(=O)O)C4)cc3F)n(C)c2c1 [Compound 16, (3S)-1-(4-{4-Cyclopropyl-1-methyl-6-[(1R)-1-methyl-1,2,3,4-tetrahydroisoquinoline-2-carbonyl]-1H-1,3-benzodiazol-2-yl}-3-fluorophenyl)pyrrolidine-3-carboxylic acid]	0.61 µM	65.3 µM
